Where two headings read alike, the source gives them in different places.
Key:
KB = assay: MTS proliferation assay, KB; type: cell-based; conditions: Homo sapiens, MDR negative, extrapolated outside tested range
Description: (§3) Day 1: Cells were plated in appropriate growth medium at 5×10^3 per well in 100 μL in 96 well tissue culture plates, Falcon, one plate for each drug to be tested. Column 1 was blank; it contained medium, but no cells. The plates were incubated overnight at 37° C. in 5% CO2 to allow attachment. Day 2: Drug diluted in culture media was added to the cells at a concentration of 0.005 nM to 10 μM in quadruplicate. After 48-72 hours of drug exposure, the MTS agent was added to all wells and incubated 1-6 hrs (37° C., 5% CO2), depending on cell type, as per CellTiter 96® AQueous Non-Radioactive Cell Proliferation Assay (MTS), Promega. Plates were processed using a Bio-Tek Synergy HT Multi-detection microtiter plate reader at 490 nanometer wavelength and data were processed with KC4V.3 software. Data plots of drug concentration vs. absorbance were plotted and IC50 values were extrapolated for each of the tested compounds.

MESSA/DOX = assay: MTS proliferation assay, MESSA/DOX; type: cell-based; conditions: Homo sapiens, MDR positive
Description: as §3

A2680-DXR1 (MDR+) = assay: MTS proliferation assay, A2680-DXR1; type: cell-based; conditions: 72 hr, read-out: MTS-6: 72 hr proliferation IC50, A2680-DXR1
Description: as §3

CEM/VLB100 cells = assay: MTT-based cytotoxicity assay, CEM/VLB100; type: cell-based, human; conditions: for IC50: vinblastine-resistant subline (MDR1); for Degree of resistance (CEM/VLB100): IC50 of the resistant line divided by IC50 of sensitive CEM cells
Description: (§1) The second set of cells tested, CCRF-CEM or simply CEM, were derived from the blood of a patient with acute lymphobiastic leukemia. (Foley, G. E.; Lazarus, H.; Farber, S.; Uzman, B. G.; Boone, B. A.; McCarthy, R. E., Continuous Culture of Human Lymphoblasts from Peripheral Blood of a Child with Acute Leukemia. Cancer 1965, 18, 522-529). The subline CEM/VLB100 was developed to be resistant to up to vinblastine at 100 ng/ml. (Beck, W. T.; Mueller, T. J.; Tanzer, L. R., Altered surface membrane glycoproteins in Vinca alkaloid-resistant human leukemic lymphoblasts. Cancer Res. 1979, 39, 2070-2076). Drug resistance is achieved by overexpression of the MDR1 gene. Resistance in the CEM subline designated CEM/VM-1-5, however, is “atypical.” (Danks, M. K.; Yalowich, J. C.; Beck, W. T., Atypical multiple drug resistance in a human leukemic cell line selected for resistance to teniposide (VM-26). Cancer Res. 1987, 47, 1297-1301). The classes of drugs included in the “classic” multiple drug resistance phenotype are Vinca alkaloids, anthracyclines, epipodophyllotoxins and antibiotics. However, CEM/VM-1-5 cells retain sensitivity to the Vinca alkaloids despite resistance and cross-resistance to etoposide, anthracyclines and mitoxantrone. (Danks, M. K.; Schmidt, C. A.; Cirtain, M. C.; Suttle, D. P.; Beck, W. T., Altered catalytic activity of and DNA cleavage by DNA topoisomerase II from human leukemic cells selected for resistance to VM-26. Biochemistry 1988, 27, 8861-8869). Resistance in CEM/VM-1-5 cells is effected by over expression of the ABCC1 (MRP1) gene. CEM, CEM/VLB100 and CEM/VM-1-5 cells were obtained from Dr. WT Beck, University of Illinois at Chicago.

[1] = tested on: MES-SA uterine sarcoma line; assay: MTT-based cytotoxicity assay, MES-SA; type: cell-based, human; conditions: sensitive parental line
Description: (§2) These lines included a uterine sarcoma line, MES-SA. (Harker, W. G.; MacKintosh, F. R.; Sikic, B. I., Development and characterization of a human sarcoma cell line, MES-SA, sensitive to multiple drugs. Cancer Res. 1983, 43, 4943-4950), and its doxorubicin-resistant subline, MES-SA/DxS. (Harker, W. G.; Sikic, B. I., Multidrug (pleiotropic) resistance in doxorubicin-selected variants of the human sarcoma cell line MES-SA. Cancer Res. 1985, 45, 4091-4096). […] However, resistance to bleomycin, cisplatin, carmustine, 5-fluorouracil or methotrexate is not observed. MES-SA/Dx5 cells express high levels of ABCB 1 (MDR1) mRNA and its gene product, the P-glycoprotein. MES-SA and MES-SA/Dx5 were purchased from the American Type Culture Collection (ATCC, Manassas, Va.).

SKNAS = assay: MTS proliferation assay, SKNAS; type: cell-based; conditions: Homo sapiens, SK-N-AS, MDR negative, extrapolated outside tested range
Description: as §3

KBV = assay: MTS proliferation assay, KBV; type: cell-based; conditions: MDR positive
Description: as §3

22Rv1 = assay: MTS proliferation assay, 22Rv1; type: cell-based; conditions: read-out: MTS-6: 72 hr proliferation IC50, 22Rv1
Description: as §3

[2] = tested on: MES-SA/Dx5 doxorubicin-resistant subline; assay: MTT-based cytotoxicity assay, MES-SA/Dx5; type: cell-based, human; conditions: for IC50: MTT, multidrug resistant subline (MDR1/P-glycoprotein); for Degree of resistance (MES-SA/Dx5): IC50 of the resistant line divided by IC50 of sensitive MES-SA cells
Description: as §2

MV522 = assay: MTS proliferation assay, MV522; type: cell-based; conditions: read-out: MTS-6: 72 hr proliferation IC50, MV522
Description: as §3

A2780-A5 = assay: MTS proliferation assay, A2780-A5; type: cell-based; conditions: read-out: MTS-6: 72 hr proliferation IC50, A2780-A5
Description: as §3

DU145 = assay: MTS proliferation assay, DU145; type: cell-based; conditions: Homo sapiens, DU-145, MDR negative, extrapolated outside tested range
Description: as §3

MV522/Mdr1 = assay: MTS proliferation assay, MV522/Mdr1; conditions: read-out: IC50 MV522/Mdr1
Description: as §3

MDAH2774 = assay: MTS proliferation assay, MDAH2774; type: cell-based; conditions: read-out: MTS-6: 72 hr proliferation IC50, MDAH2774
Description: as §3

CEM/VM-1-5 cells = assay: MTT-based cytotoxicity assay, CEM/VM-1-5; type: cell-based, human; conditions: for IC50: MTT, atypical MDR subline (ABCC1/MRP1); for Degree of resistance (CEM/VM-1-5): IC50 of the resistant line divided by IC50 of sensitive CEM cells
Description: as §1

MDAMB435s = assay: MTS proliferation assay, MDAMB435s; type: cell-based; conditions: Homo sapiens, MDA-MB-435S, MDR negative, extrapolated outside tested range
Description: as §3

HT29 = assay: MTS proliferation assay, HT29; type: cell-based; conditions: Homo sapiens, HT-29, MDR negative, extrapolated outside tested range
Description: as §3

HCT-15 (MDR+) = assay: MTS proliferation assay, HCT-15; type: cell-based; conditions: read-out: MTS-6: 72 hr proliferation IC50, HCT-15
Description: as §3

tubulin = tubulin protein assembly assay; type: biochemical; conditions: for ED50/ED50 (Paclitaxel): ratio to paclitaxel; for EC50: tubulin assembly, read-out: ED50 (the source's name)
CCRF-CEM (CEM) cells = assay: MTT-based cytotoxicity assay, CEM; type: cell-based, human; conditions: sensitive parental line
Description: as §2, §1

[3] = tested on: cancer cell lines, both MDR expressing and non-MDR expressing; assay: MTS proliferation assay, cell line panel (general statements); type: cell-based
Description: as §3

Molecule | IC50 (CEM/VLB100 cells; MTT) [nM] | IC50 ([1]; Homo sapiens, MES-SA) [nM] | IC50 ([2]; Homo sapiens, MES-SA/Dx5) [nM] | Degree of resistance (MES-SA/Dx5) [2] | IC50 (CEM/VM-1-5 cells; Homo sapiens) [nM] | Degree of resistance (CEM/VM-1-5) (CEM/VM-1-5 cells) | IC50 (CEM/VM-1-5 cells) [nM] | ED50/ED50 (Paclitaxel) (tubulin) | EC50 (tubulin) [nM] | Degree of resistance (CEM/VLB100) (CEM/VLB100 cells) | IC50 [1] [nM] | IC50 [2] [nM] | IC50 (CCRF-CEM (CEM) cells) [nM] | other results
CC(=O)O[C@H]1C(=O)[C@@]2(C)[C@H]([C@H](OC(=O)c3ccccc3)[C@]3(O)C[C@H](OC(=O)[C@H](O)[C@@H](NC(=O)c4ccccc4)c4ccccc4)C(C)=C1C3(C)C)[C@]1(OC(C)=O)CO[C@@H]1C[C@@H]2O [Paclitaxel] | 3030 | 9 ± 7 | 19400 ± 204 | 3105 ± 2416 | < 11 | 4 | 8 | – | – | – | – | – | – | IC50 (KB): < 0.002 nM; IC50 (MESSA/DOX): ≥ 500 nM; IC50 (A2680-DXR1 (MDR+)): 3580 nM; IC50 (SKNAS): < 0.002 nM; IC50 (KBV): ≥ 500 nM; IC50 (22Rv1; Homo sapiens, 22Rv1, 72 h): 1.7 nM; IC50 (MV522; MV522, 72 h): 1.71 nM; IC50 (A2780-A5; 72 h): < 0.002 nM; IC50 (DU145): < 0.002 nM; IC50 (MV522/Mdr1): ≥ 500 nM; IC50 (MDAH2774; Homo sapiens, MDAH 2774, 72 h): 0.015 nM; IC50 (MDAMB435s): < 0.002 nM; IC50 (HT29): < 0.002 nM; IC50 (HCT-15 (MDR+); Homo sapiens, HCT-15, 72 hr): 311 nM
C=CC1OC2CC3OCC3(OC(C)=O)C3C(OC(=O)c4ccccc4)C4(C(C)(C)O)CC(OC(=O)C(O)C(CC(C)C)NC(=O)OC(C)(C)C)C(C)=C4C(OC(C)=O)C(O1)C23C (stereo not drawn) [10-αAT (15a.2)] | 19 ± 9 | – | – | 1.6 ± 0.8 | – | 1.3 ± 1.4 | 5 ± 4 | 0.53 | 1580 ± 460 | 4 ± 0 | 9.5 ± 0.7 | 15 ± 8 | 5 ± 3 | IC50 (A2680-DXR1 (MDR+)): 15 nM; affinity for tubulin (in words) (tubulin; compared to several recognized tubulin binding agents): surprisingly great affinity for tubulin; IC50 (22Rv1; 72 hr): 5.7 nM; IC50 (MV522; 72 hr): 3.5 nM; IC50 (A2780-A5; 72 hr): 0.282 nM; IC50 (MDAH2774; 72 hr): 0.18 nM; IC50 [3]: < 1000 nM; IC50 (HCT-15 (MDR+); 72 hr): 2.4 nM
C=C[C@H]1O[C@H]2C[C@H]3OC[C@@]3(OC(C)=O)[C@H]3[C@H](OC(=O)c4ccccc4)[C@]4(C(C)(C)O)C[C@H](OC(=O)[C@H](O)[C@H](CC(C)C)NC(=O)OC(C)(C)C)C(C)=C4[C@@H](OC(C)=O)[C@H](O1)[C@]23C [10-βAT (15b.2)] | 453 ± 293 | – | – | 0.75 ± 0.07 | – | 0.9 ± 0.5 | 77 ± 6 | – | – | 4 ± 0.3 | 432 ± 261 | 328 ± 173 | 112 ± 60 | –
CC(=O)O[C@@]12CO[C@@H]1C[C@H](O)[C@@]1(C)C(=O)[C@H](O)C3=C(C)[C@@H](OC(=O)[C@H](O)[C@@H](NC(=O)OC(C)(C)C)c4ccccc4)C[C@@](O)([C@@H](OC(=O)c4ccccc4)[C@H]21)C3(C)C [Docetaxel] | – | – | – | – | – | – | – | 1.07 | 3180 ± 450 | – | – | – | – | –
Doxorubicin | 2100 | – | – | 49 | – | 219 | 3060 | – | – | 150 | 2 | 97 | 14 | –
CC[C@]1(O)C[C@@H]2CN(CCc3c([nH]c4ccccc34)[C@@](C(=O)OC)(c3cc4c(cc3OC)N(C)[C@H]3[C@@](O)(C(=O)OC)[C@H](OC(C)=O)[C@]5(CC)C=CCN6CC[C@]43[C@@H]65)C2)C1 [Vinblastine] | – | […] | 43 ± 12 | 38.5 ± 0.7 | 1.3 ± 0.9 | 1.2 ± 0.07 | – | – | – | 255 ± 127 | – | – | – | IC50 (CEM/VLB100 cells; Homo sapiens, CEM/VLB100, MTT): 227 ± 77 nM; IC50 (CCRF-CEM (CEM) cells; Homo sapiens, CCRF-CEM): 1 ± 0.8 nM
C=CC1OC2CC3OCC3(OC(C)=O)C3C(OC(=O)c4ccccc4)C4(O)CC(OC(=O)C(O)C(CC(C)C)NC(=O)OC(C)(C)C)C(C)=C(C(OC(C)=O)C(O1)C23C)C4(C)C (mixture of isomers) [10-αTX (14a.2)] | 43 ± 23 | – | – | 1.1 ± 0.3 | – | – | – | – | – | 3 ± 0.6 | 30 ± 14 | 34 ± 24 | 14 ± 5 | –
C=CC1OC2CC3OCC3(OC(C)=O)C3C(OC(=O)c4ccccc4)C4(O)CC(OC(=O)C(O)C(CC(C)C)NC(=O)OC(C)(C)C)C(C)=C(C(OC(C)=O)C(O1)C23C)C4(C)C (stereo not drawn) [10-βTX (14b.2), 10-beta taxane acrolein acetal] | – | 28 ± 16 | 36 ± 34 | 1.2 ± 0.5 | 9 ± 1 | 1.2 ± 0.3 | – | – | – | 3 ± 1 | – | – | – | IC50 (CEM/VLB100 cells; Homo sapiens, CEM/VLB100, MTT): 22 ± 11 nM; IC50 (CCRF-CEM (CEM) cells; Homo sapiens, CCRF-CEM): 7.5 ± 0.7 nM

— patent publication US20160176894A1, “TAXANE AND ABEO-TAXANE ANALOGS” (Arbor Therapeutics, LLC, priority 2013, published 2016)
